What all share (format): biochemical
Assay [1] has as its target 320 wild-type protein kinases (Homo sapiens, UniProt Q9UQM7). To be noted: CAMK2A, singlicate. From the text: (§1) Table S4. Profiling of two compounds at two concentrations against 320 wild-type protein kinases; singlicate measurement; Residual activities (% of control).
Assay [2] deals with 320 wild-type protein kinases (Homo sapiens, UniProt Q16512). The note with it: singlicate.
Source text: as §1

Assay [3] concerns the target T1, 320 wild-type protein kinases (Homo sapiens, UniProt Q96PY6).
T1 sequence (Q96PY6 1-1258): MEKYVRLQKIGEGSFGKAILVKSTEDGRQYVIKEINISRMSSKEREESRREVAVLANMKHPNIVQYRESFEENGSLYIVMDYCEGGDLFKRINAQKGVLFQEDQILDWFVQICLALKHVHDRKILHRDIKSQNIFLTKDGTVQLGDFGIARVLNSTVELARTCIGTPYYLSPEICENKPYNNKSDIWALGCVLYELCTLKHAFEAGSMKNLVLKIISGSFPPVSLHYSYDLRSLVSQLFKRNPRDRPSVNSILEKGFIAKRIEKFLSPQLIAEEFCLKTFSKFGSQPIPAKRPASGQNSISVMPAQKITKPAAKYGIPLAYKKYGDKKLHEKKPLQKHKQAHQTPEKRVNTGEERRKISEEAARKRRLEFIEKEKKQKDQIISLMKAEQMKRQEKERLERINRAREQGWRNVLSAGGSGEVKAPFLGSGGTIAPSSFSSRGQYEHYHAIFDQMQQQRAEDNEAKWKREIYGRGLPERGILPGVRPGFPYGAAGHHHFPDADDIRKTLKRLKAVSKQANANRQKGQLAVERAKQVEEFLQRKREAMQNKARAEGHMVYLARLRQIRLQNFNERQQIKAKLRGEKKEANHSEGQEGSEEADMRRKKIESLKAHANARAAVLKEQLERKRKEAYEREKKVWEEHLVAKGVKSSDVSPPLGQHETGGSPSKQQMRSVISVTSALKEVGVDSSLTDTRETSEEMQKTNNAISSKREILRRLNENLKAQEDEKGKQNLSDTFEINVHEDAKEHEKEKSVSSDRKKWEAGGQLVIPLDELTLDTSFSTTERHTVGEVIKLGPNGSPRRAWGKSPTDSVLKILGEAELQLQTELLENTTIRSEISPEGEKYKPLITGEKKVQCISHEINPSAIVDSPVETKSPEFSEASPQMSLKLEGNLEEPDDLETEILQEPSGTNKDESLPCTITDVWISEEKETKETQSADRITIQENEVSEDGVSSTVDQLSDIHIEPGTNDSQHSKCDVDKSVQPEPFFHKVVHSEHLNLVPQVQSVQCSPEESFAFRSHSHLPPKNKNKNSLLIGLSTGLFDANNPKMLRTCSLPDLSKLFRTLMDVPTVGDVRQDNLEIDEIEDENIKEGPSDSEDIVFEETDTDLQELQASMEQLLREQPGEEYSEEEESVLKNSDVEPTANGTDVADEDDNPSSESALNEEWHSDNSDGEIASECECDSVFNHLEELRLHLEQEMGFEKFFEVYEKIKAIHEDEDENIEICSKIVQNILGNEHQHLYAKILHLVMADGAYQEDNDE
The note with it: singlicate.
Source text: as §1

Assay [4] deals with T2, 320 wild-type protein kinases (Homo sapiens, UniProt Q6XUX3).
T2 sequence (Q6XUX3 1-929): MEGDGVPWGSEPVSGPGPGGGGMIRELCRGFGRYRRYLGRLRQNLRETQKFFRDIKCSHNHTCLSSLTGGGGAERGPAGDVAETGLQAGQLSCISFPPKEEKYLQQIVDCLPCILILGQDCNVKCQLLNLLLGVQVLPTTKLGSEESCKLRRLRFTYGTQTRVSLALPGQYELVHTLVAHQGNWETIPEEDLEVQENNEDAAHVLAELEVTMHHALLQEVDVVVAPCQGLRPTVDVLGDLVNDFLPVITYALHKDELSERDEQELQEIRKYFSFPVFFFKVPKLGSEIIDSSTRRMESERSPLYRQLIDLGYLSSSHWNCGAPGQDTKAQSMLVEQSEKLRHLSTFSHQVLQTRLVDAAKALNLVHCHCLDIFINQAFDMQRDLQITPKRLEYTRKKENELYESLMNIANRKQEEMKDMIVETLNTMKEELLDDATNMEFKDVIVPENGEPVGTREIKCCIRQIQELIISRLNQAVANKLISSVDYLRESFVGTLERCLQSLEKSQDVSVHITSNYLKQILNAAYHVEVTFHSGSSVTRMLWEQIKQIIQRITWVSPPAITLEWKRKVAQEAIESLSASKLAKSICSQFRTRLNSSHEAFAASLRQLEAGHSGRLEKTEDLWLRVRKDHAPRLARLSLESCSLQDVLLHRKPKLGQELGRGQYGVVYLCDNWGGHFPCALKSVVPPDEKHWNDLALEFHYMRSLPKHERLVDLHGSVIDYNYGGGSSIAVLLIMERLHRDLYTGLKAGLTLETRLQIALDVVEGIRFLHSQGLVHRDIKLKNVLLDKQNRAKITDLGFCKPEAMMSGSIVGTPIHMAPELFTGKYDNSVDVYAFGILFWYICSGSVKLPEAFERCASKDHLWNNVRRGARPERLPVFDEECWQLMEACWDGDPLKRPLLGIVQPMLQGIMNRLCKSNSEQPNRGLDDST
To be noted: kinase RIPK5, singlicate.
Source text: as §1

The structures appear in SMILES notation. Read-outs that look alike come from different tables or passages of the source.

Chain of 320 wild-type protein kinases (Homo sapiens, UniProt Q16512) (Q16512 whole entry): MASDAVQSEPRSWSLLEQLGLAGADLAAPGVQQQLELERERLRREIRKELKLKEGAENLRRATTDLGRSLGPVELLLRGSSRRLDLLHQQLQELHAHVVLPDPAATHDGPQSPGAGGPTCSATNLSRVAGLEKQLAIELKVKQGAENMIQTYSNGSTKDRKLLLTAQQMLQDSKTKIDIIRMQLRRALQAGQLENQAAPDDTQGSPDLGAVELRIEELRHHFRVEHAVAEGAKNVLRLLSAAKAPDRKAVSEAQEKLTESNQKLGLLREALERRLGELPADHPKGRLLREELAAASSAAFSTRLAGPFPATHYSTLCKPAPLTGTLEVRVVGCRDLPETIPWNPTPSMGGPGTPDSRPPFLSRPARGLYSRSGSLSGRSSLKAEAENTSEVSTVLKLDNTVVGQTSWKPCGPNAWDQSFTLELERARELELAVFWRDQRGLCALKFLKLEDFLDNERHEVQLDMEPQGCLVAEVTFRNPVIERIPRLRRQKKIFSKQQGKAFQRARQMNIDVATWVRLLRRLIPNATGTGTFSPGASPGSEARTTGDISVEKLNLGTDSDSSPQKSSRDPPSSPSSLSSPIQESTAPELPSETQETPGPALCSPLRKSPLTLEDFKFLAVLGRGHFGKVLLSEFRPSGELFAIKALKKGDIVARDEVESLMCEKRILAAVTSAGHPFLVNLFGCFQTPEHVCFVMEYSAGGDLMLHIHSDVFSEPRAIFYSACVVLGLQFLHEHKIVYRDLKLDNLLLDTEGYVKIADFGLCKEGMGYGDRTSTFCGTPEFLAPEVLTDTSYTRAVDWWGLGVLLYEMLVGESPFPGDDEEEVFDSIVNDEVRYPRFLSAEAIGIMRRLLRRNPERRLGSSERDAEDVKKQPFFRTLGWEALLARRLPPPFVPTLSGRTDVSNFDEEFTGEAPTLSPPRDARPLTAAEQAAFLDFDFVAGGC
Chain of 320 wild-type protein kinases (Homo sapiens, UniProt Q9UQM7) (Q9UQM7 whole entry): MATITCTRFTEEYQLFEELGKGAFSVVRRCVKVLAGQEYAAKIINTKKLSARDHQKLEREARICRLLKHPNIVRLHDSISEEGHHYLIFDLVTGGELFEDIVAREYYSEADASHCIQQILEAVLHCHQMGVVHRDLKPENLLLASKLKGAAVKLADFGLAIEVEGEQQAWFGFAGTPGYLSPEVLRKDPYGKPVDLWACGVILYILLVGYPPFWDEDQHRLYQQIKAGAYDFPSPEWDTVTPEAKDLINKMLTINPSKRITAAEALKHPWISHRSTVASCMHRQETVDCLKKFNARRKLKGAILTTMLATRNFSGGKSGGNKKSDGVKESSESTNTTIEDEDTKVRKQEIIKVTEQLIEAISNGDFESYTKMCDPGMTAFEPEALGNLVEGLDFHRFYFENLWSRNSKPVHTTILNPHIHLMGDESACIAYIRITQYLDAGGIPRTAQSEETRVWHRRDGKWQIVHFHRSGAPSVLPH

With `C#Cc1cc(Nc2ncnc3cc(I)ccc23)ccc1Cl` [Compound 41], the Residual activity in assay [1] (1.0E-06 M) was 93 % of control; in assay [1] (1.0E-07 M), 99 % of control; in assay [2] (PRK1, 1.0E-06 M) it was 96 % of control; in assay [2] (PRK1, 1.0E-07 M) it was 96 % of control; in assay [3] (NEK1, 1.0E-06 M), 82 % of control; in assay [3] (NEK1, 1.0E-07 M), 86 % of control. Also, the “Residual activity, RIPK5” value in assay [4] (assay conc. 1.0E-06 M) is 85 % of control; in assay [4] (assay conc. 1.0E-07 M), 96 % of control.
Regarding `C#Cc1cc(Nc2ncnc3cc(OC)c(OC)cc23)ccc1Cl` [Compound 45], the Residual activity in assay [1] (1.0E-06 M) was 101 % of control; in assay [1] (1.0E-07 M), 104 % of control; in assay [2] (PRK1, 1.0E-06 M), 91 % of control; in assay [2] (PRK1, 1.0E-07 M) it was 91 % of control; in assay [3] (NEK1, 1.0E-06 M) it was 89 % of control; in assay [3] (NEK1, 1.0E-07 M) it was 89 % of control. For the same compound, the figures for the “Residual activity, RIPK5” value in assay [4] (assay conc. 1.0E-06 M) and in assay [4] (assay conc. 1.0E-07 M) were 71 % of control and 84 % of control, respectively.

For the origin of these results see article PMC9329436, “Optimization of the 4-anilinoquin(az)oline scaffold as epidermal growth factor receptor (EGFR) inhibitors for chordoma utilizing a toxicology profiling assay platform” (Scientific Reports, 2022).
